The record followed here is ChEMBL document CHEMBL2163275, “The lipogenesis pathway as a cancer target” (J Med Chem, 2011).

The target of assay [1] is T1, Fatty acid synthase (Homo sapiens, UniProt P49327). Kind of assay: Inhibition of FASN in human SKBR3 cells. The class given is cell-based, SK-BR-3.
Assay [2] is described as follows: Inhibition of acetyl coA carboxylase in human MCF7 cells. The class given is cell-based.
In assay [3] the target is T2, ATP-citrate synthase (Rattus norvegicus, UniProt P16638).
T2 sequence (P16638 whole entry): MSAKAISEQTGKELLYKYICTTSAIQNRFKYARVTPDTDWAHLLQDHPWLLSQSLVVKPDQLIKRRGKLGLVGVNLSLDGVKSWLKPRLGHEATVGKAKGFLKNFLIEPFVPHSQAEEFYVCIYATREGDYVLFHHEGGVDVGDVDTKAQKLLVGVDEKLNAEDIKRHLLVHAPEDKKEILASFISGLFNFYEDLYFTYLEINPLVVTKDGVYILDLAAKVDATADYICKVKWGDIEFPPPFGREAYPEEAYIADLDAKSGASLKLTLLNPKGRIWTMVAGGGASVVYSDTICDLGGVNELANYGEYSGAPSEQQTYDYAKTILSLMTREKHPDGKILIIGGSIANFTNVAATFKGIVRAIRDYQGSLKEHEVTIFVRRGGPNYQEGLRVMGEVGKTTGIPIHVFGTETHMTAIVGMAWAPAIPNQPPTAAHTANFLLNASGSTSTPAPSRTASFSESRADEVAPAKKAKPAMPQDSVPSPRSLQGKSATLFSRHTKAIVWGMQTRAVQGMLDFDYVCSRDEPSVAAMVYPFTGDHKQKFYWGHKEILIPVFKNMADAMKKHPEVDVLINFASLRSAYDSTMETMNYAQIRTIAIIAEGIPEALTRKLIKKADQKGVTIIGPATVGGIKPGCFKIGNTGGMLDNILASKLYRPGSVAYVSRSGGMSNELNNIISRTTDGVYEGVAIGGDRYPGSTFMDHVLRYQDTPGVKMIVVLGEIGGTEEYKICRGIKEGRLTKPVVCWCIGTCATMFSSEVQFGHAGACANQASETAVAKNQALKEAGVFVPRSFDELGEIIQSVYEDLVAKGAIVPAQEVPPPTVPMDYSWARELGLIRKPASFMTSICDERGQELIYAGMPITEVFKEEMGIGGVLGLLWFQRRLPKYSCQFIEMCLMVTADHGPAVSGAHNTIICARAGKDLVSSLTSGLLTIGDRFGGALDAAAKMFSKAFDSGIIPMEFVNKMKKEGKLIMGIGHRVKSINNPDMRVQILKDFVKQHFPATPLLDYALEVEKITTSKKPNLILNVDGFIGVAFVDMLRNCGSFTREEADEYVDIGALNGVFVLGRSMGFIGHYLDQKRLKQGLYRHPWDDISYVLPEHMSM
Kind of assay: Competitive inhibition of rat liver ACLY using citrate as substrate by spectrophotometric analysis.

Assay [4] has as its target T2, ATP-citrate synthase. Kind of assay: Competitive inhibition of rat liver ACLY using ATP as substrate by spectrophotometric analysis.
A short description of assay [5]: Inhibition of Escherichia coli FabB.
Assay [6] concerns the target Fatty acid synthase (Rattus norvegicus, UniProt P12785). The assay is described as follows: Inhibition of FASN in rat liver.
The target of assay [7] is T1, Fatty acid synthase. The assay is described as follows: Inhibition of FASN in human HepG2 cells. The format is cell-based.
A further assay has as its system BGC-823. Kind of assay: Cytotoxicity against human BGC823 cells. The format is functional, cell-based.
A short description of assay [8]: Inhibition of duck liver FASN. More on the design: species or system Anas platyrhynchos.
Assay [9] has as its target T1, Fatty acid synthase. The assay is described as follows: Antagonist activity at recombinant FASN thioesterase domain by fluorogenic assay. The class given is functional.
For assay [10], the target named is T3, Fatty acid synthase (Gallus gallus, UniProt P12276). Kind of assay: Inhibition of chicken liver FASN ketoreductase activity.
Assay [11] concerns the target T3, Fatty acid synthase. Kind of assay: Inhibition of chicken liver FASN after 3 hrs.
The target in assay [12] is T1, Fatty acid synthase. The assay is described as follows: Antagonist activity at human recombinant FASN thioesterase domain by fluorogenic assay. The format is functional.
Assay [13] relates to MDA-MB-435. Kind of assay: Cytotoxicity against human MDA-MB-435 cells. The format is functional, cell-based.
Assay [14] concerns MDA-MB-435. The assay is described as follows: Selectivity ratio of IC50 for human MCF10A to IC50 for human MDA-MB-435 cells.
A short description of assay [15]: Inhibition of Ustilago maydis recombinant ACC expressed in Escherichia coli BL21(DE3) using acetyl coA as substrate and [14C]NaHCO3 incubated for 10 mins prior to substrate addition by liquid scintillation counting. Further details: species or system Mycosarcoma maydis.
The target of assay [16] is T2, ATP-citrate synthase. The assay is described as follows: Competitive inhibition of rat liver ACLY using CoA as substrate by spectrophotometric analysis.
Assay [17] in a line: Inhibition of rat liver ACC.
A further assay addresses Acetyl-CoA carboxylase 2 (Homo sapiens, UniProt O00763). Kind of assay: Inhibition of human ACC2 using acetyl coA as substrate and [14C]NaHCO3 incubated for 5 mins prior to substrate addition by liquid scintillation counting.
The target in the next assay is Acetyl-CoA carboxylase 1 (Homo sapiens, UniProt Q13085). Kind of assay: Inhibition of human ACC1 using acetyl coA as substrate and [14C]NaHCO3 incubated for 5 mins prior to substrate addition by liquid scintillation counting.
The target of assay [18] is T1, Fatty acid synthase. Kind of assay: Reversible inhibition of human recombinant FASN ketoreductase site.

T1 sequence (P49327 whole entry): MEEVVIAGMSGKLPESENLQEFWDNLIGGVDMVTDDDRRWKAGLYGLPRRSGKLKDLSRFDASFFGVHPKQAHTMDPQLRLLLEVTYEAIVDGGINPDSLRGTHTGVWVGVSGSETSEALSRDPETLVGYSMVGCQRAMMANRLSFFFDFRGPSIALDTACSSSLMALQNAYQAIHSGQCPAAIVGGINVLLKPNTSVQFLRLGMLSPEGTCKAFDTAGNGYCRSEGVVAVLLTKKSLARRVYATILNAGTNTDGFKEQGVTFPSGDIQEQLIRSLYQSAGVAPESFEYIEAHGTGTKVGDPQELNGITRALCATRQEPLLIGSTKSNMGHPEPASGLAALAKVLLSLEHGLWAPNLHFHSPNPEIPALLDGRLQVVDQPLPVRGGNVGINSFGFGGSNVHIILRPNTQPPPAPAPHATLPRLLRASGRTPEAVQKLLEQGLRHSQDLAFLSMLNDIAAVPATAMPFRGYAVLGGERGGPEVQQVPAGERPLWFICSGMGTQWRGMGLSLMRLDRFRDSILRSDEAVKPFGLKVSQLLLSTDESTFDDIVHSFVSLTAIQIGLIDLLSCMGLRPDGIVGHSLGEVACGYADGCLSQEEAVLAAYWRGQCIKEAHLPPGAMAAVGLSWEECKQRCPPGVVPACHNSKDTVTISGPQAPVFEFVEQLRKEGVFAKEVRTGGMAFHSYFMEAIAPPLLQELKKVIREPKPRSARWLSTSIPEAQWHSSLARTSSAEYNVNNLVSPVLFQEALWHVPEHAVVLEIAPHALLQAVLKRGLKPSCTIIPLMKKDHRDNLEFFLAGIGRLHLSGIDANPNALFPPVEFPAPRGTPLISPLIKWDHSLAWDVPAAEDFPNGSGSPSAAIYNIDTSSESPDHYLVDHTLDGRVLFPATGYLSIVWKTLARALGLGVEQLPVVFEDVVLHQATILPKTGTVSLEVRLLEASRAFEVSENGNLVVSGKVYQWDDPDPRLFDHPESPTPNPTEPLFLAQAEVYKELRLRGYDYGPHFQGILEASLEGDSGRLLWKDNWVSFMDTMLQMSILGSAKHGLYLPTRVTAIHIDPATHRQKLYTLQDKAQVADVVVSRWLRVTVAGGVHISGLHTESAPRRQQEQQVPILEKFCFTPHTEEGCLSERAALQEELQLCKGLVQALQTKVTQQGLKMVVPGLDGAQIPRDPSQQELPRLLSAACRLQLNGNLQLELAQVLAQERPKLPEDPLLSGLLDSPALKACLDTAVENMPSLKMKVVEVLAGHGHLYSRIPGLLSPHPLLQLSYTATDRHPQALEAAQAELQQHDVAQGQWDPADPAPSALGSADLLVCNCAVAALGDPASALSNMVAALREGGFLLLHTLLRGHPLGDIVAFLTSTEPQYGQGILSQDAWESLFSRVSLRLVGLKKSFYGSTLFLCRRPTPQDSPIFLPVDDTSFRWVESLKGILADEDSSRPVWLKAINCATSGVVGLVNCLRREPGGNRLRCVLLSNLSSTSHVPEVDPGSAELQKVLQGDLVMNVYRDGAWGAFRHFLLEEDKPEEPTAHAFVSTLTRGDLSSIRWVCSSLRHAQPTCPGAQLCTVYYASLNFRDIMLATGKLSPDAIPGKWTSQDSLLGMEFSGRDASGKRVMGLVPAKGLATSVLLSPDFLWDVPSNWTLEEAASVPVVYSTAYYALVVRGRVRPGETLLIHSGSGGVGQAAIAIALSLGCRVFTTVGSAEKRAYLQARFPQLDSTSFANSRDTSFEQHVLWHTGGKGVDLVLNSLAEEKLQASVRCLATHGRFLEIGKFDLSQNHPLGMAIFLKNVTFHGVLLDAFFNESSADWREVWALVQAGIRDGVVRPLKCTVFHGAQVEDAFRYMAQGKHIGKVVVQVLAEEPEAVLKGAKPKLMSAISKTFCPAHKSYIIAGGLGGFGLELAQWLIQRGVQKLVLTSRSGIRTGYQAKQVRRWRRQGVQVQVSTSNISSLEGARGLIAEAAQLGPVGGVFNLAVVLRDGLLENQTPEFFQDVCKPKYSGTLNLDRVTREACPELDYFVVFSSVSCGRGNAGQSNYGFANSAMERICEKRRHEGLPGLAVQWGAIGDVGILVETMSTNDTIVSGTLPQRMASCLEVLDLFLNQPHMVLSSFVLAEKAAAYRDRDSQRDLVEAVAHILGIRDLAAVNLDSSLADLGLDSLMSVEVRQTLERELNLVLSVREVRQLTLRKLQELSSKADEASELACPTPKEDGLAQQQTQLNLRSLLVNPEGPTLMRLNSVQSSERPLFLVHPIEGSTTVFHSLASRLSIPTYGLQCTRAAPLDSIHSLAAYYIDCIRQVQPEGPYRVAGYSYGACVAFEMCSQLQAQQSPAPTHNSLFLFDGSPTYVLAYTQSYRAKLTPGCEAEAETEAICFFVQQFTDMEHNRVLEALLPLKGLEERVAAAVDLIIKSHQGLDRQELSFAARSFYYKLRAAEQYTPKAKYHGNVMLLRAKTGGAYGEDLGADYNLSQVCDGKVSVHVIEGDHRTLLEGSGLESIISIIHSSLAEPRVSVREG
T3 sequence (P12276 whole entry): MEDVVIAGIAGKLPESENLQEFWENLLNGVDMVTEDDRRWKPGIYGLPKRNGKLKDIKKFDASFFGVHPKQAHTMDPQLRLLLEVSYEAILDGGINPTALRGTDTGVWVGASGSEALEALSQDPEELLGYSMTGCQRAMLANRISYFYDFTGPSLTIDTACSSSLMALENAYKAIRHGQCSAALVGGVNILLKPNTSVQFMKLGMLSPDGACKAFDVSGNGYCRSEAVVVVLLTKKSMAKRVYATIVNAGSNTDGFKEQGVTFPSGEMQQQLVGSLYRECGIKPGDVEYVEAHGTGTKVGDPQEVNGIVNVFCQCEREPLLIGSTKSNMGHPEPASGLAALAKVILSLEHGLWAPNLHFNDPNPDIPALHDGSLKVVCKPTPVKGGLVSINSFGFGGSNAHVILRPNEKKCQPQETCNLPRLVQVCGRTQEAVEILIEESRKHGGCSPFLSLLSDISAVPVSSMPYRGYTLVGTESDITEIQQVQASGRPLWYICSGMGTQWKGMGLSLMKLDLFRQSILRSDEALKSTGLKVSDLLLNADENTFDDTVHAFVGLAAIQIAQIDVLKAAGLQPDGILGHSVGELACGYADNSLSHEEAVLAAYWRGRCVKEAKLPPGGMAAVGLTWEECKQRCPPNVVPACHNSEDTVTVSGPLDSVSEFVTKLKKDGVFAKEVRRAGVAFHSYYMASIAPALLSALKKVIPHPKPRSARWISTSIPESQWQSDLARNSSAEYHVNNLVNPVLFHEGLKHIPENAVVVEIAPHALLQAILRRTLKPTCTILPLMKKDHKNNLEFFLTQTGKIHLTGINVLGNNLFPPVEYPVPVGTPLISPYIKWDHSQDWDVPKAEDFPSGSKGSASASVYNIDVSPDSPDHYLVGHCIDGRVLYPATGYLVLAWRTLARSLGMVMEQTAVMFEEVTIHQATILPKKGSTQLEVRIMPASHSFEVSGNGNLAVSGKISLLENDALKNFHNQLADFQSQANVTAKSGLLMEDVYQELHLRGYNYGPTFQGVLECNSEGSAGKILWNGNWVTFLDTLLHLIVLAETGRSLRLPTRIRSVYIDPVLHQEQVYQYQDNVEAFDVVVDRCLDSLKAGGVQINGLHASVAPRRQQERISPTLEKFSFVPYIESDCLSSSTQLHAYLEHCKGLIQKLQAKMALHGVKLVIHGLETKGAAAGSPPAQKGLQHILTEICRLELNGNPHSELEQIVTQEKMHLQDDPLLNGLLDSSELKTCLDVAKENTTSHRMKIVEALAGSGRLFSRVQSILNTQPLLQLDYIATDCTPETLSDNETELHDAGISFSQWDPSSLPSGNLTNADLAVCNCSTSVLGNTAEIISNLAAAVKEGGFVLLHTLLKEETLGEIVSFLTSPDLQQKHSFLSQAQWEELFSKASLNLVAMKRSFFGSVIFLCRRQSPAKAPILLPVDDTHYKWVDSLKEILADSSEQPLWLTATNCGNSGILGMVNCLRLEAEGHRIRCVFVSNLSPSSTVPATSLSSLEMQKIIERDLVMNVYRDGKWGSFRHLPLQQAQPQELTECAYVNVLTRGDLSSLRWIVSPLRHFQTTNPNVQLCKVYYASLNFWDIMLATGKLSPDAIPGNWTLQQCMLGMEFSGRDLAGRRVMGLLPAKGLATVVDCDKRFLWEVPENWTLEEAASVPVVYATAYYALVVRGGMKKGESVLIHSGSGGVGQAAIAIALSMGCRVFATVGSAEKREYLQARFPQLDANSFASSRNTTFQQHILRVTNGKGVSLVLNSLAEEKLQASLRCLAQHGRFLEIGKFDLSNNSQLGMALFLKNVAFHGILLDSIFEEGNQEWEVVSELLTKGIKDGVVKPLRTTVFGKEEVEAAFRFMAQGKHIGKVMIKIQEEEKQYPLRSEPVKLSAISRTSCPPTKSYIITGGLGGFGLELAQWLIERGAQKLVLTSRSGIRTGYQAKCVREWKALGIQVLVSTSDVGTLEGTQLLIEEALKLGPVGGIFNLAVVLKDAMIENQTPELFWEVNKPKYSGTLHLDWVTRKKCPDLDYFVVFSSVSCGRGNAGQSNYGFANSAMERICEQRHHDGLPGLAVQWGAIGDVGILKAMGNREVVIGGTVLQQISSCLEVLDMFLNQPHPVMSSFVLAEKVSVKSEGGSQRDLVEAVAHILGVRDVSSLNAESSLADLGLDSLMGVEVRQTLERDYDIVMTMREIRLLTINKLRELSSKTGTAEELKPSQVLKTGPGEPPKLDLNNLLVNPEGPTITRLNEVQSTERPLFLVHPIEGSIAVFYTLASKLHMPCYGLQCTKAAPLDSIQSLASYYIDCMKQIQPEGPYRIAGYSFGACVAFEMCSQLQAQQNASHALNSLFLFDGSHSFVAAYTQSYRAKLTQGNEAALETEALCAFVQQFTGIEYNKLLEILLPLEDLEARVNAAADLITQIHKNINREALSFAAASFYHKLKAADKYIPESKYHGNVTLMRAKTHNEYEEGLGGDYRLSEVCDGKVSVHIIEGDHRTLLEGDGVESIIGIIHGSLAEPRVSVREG

In turn, `CCCCC/C=C\C=C\CCCCCCCCC(=O)O` came in with an IC50 against Fatty acid synthase [1] of 100 µM.
In turn, `CCCCCCCCCCCCCCOc1ccc(C(=O)O)o1` [TOFA] registered an IC50 in assay [2] of 12.3 µM.
In the case of `C[C@@H]1C[C@H]2O[C@@H]2/C=C\C=C\C(=O)Cc2c(Cl)c(O)cc(O)c2C(=O)O1` [RADICICOL], the figures for the Ki at ATP-citrate synthase [3] and at ATP-citrate synthase [4] were 13 µM and 7 µM, respectively.
On to `C=C/C(C)=C/[C@@]1(C)SC(=O)C(C)=C1O` [THIOLACTOMYCIN], for which the half-inhibitory concentration (IC50) was 1.9 µM in [5], above 951 µM against Fatty acid synthase [6] and above 380 µM against Fatty acid synthase [7].
As for `O=C(O[C@H]1O[C@@H]2COc3c(c4cc(O)c(O)c(O)c4c4c(O)c(O)c(O)cc34)O[C@H]2[C@H](OC(=O)c2cc(O)c(O)c(O)c2)[C@H]1OC(=O)c1cc(O)c(O)c(O)c1)c1cc(O)c(O)c(Oc2c(C(=O)O[C@@H]3O[C@@H]4COC(=O)c5cc(O)c(O)c(O)c5-c5c(cc(O)c(O)c5O)C(=O)O[C@H]4[C@@H]4OC(=O)c5cc(O)c(O)c(O)c5-c5c(cc(O)c(O)c5O)C(=O)O[C@@H]34)cc(O)c(O)c2O)c1` [GEMIN A], the results for the IC50 (in the assay with BGC-823; in [8]) were 40.4 µM and 0.21 µM, respectively.
For `O=C1O[C@@H](CCc2ccccc2)[C@H]1Cc1ccccc1`, the Ki at Fatty acid synthase [9] is 2.5 µM.
As to `O=C(O[C@@H]1Cc2c(O)cc(O)cc2O[C@@H]1c1ccc(O)c(O)c1)c1cc(O)c(O)c(O)c1` [EPICATECHIN GALLATE], the IC50 against Fatty acid synthase [10] came to 68 µM; against Fatty acid synthase [11] it was 42 µM.
As to `Cc1cc(C)cc(N2C(=O)NC(=O)/C(=C\c3ccc(-c4ccccc4)o3)C2=O)c1`, the Ki at Fatty acid synthase [12] was 0.38 µM. Moreover, the IC50 in the assay on MDA-MB-435 [13] was 3.47 µM. Further, the “Ratio IC50” value with MDA-MB-435 [14] is reported as 2.
Consider `CO[C@H]1CCCC[C@@H](c2ccccc2)OC(=O)[C@@H](C)[C@@]2(O)O[C@H]([C@@H](C)[C@H](O)[C@H]2OC)[C@@H](C)/C=C/[C@H]1OC` [SORAPHEN A], for which the Ki in assay [15] was found to be 0.0021 µM.
Turning to `CC(C)(CCCCCCCCCCC(C)(C)CC(=O)O)CC(=O)O`, the figures for the Ki (at ATP-citrate synthase [16]; in assay [17]; at ATP-citrate synthase [3]) were 3 µM, 70 µM and 16 µM, respectively.
`CC(C)Oc1ccc(C2=NC(CSc3nc4ncccc4o3)CO2)cc1` (configuration not stated): the IC50 at Acetyl-CoA carboxylase 2 was 2.8 µM; on Acetyl-CoA carboxylase 1, above 100 µM.
With `Cc1ccnc(NS(=O)(=O)c2ccc(NC(=O)Nc3ccc(S(=O)(=O)Nc4nccc(C)n4)cc3)cc2)n1`, at Fatty acid synthase [18], the IC50 is 0.0158 µM.
